pIC50: −log10 of the molar value. Active and inactive are the calls of the source. The calls are words filed in the database; no cut-off is given here.
Columns and labels:
A549 = test: Antiproliferative activity against human A549 cells after 48 hrs by MTT assay; type: functional, cell-based; details: A549, 48 h
HepG2 = test: Antiproliferative activity against human HepG2 cells after 48 hrs by MTT assay; type: functional, cell-based; details: HepG2, 48 h
MCF7 = test: Antiproliferative activity against human MCF7 cells after 48 hrs by MTT assay; type: functional, cell-based; details: MCF7, 48 h
HCT-116 = test: Antiproliferative activity against human HCT116 cells after 48 hrs by MTT assay; type: functional, cell-based; details: HCT-116, 48 h
[1] = target: T1, DNA topoisomerase 1 (Homo sapiens) (UniProt P11387); test: Inhibition of DNA topoisomerase-1 (unknown origin) assessed as reduction in enzyme-catalyzed relaxation of pBR322 DNA substrate at 20 uM after 30 mins by ethidium bromide staining based electrophoresis
T1 sequence (whole entry): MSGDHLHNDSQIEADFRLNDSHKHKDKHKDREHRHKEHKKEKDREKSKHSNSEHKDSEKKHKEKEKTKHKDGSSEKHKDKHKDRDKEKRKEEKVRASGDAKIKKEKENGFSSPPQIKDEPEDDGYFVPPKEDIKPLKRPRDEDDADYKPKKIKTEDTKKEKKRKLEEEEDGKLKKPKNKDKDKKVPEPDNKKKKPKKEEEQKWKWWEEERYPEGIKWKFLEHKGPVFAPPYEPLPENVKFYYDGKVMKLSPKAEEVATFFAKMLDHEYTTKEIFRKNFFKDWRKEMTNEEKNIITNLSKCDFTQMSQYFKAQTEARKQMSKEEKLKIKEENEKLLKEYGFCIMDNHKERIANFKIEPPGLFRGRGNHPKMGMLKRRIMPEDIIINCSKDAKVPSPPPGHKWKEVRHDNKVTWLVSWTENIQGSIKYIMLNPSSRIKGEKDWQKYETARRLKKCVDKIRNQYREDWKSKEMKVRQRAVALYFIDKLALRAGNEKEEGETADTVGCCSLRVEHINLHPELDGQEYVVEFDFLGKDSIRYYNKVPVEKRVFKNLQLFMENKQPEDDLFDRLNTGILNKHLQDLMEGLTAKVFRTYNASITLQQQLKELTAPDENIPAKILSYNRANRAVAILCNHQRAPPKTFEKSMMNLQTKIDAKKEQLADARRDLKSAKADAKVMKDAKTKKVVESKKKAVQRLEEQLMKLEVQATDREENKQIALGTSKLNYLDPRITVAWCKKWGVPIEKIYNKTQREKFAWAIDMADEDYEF

[2] = Antitumor activity against mouse H22-H8D8 cells implanted in ICR mouse assessed as tumor growth inhibition at 5 mg/kg, iv relative to control; type: functional; details: read-out: TGI
[3] = target: DNA topoisomerase 2-alpha (Homo sapiens) (UniProt P11388); test: Inhibition of DNA topoisomerase-2alpha (unknown origin) assessed as reduction in enzyme-catalyzed relaxation of pBR322 DNA substrate at 20 uM after 30 mins by ethidium bromide staining based electrophoresis
Mus musculus [4] = test: Toxicity in ICR mouse implanted with mouse H22-H8D8 cells assessed as body weight at 10 mg/kg, iv (reference value: 29.89 to 33.78 g); type: organism-based; details: in vivo
[5] = Antitumor activity against mouse H22-H8D8 cells implanted in ICR mouse assessed as tumor growth inhibition at 20 mg/kg, iv relative to control; type: functional; details: read-out: TGI
[6] = Antitumor activity against mouse H22-H8D8 cells implanted in ICR mouse assessed as tumor growth inhibition at 10 mg/kg, iv relative to control; type: functional; details: read-out: TGI
Mus musculus [7] = test: Toxicity in ICR mouse implanted with mouse H22-H8D8 cells assessed as body weight at 5 mg/kg, iv (reference value: 29.89 to 33.78 g); type: organism-based; details: in vivo
Mus musculus [8] = test: Toxicity in ICR mouse implanted with mouse H22-H8D8 cells assessed as body weight at 20 mg/kg, iv (reference value: 29.89 to 33.78 g); type: organism-based; details: in vivo

Chain of DNA topoisomerase 2-alpha (Homo sapiens) (P11388 whole entry): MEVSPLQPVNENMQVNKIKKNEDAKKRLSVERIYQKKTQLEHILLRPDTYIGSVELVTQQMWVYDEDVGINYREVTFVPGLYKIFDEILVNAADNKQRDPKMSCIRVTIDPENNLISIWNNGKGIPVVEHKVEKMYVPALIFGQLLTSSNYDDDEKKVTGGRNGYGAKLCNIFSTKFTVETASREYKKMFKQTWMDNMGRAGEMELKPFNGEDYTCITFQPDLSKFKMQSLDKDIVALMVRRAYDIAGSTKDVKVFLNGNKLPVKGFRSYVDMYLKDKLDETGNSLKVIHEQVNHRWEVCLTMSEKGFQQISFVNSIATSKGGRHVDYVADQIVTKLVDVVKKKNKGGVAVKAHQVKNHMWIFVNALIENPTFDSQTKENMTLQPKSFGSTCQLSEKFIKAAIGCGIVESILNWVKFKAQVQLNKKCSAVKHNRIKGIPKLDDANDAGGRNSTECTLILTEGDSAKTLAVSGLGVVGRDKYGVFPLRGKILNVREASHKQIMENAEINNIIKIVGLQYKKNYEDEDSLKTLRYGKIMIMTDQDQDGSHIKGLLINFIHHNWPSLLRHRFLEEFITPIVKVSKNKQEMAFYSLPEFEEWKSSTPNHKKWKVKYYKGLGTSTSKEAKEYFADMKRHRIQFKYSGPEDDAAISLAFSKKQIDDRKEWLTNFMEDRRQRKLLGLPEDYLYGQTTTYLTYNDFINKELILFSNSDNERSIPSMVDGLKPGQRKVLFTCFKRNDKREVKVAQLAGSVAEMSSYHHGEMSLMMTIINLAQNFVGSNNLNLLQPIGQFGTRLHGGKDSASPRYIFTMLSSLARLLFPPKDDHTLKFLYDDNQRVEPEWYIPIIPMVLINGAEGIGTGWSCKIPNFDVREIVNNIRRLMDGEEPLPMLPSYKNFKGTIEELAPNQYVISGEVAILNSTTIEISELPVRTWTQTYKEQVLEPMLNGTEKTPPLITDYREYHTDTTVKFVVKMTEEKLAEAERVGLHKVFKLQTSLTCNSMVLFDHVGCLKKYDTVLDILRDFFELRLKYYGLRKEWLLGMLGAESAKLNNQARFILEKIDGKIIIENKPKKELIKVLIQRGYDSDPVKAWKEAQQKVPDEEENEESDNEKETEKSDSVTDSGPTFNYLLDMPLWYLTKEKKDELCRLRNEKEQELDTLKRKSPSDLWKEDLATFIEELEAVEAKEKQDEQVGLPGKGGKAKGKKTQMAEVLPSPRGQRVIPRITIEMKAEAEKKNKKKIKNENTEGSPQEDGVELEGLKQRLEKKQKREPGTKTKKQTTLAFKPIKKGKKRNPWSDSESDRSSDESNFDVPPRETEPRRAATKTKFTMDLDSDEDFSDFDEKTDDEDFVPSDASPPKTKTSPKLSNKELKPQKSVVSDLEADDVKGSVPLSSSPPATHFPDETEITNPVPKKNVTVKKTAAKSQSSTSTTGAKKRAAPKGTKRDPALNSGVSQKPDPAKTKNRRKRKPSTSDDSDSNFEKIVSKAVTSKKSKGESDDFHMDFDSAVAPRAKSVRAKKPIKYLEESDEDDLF

Row | Structure (SMILES) | pIC50 (A549) | pIC50 (HepG2) | pIC50 (MCF7) | pIC50 (HCT-116) | inhibition [1] | inhibition in vivo at 5 mg/kg [2] [%] | inhibition [3] | Activity (Mus musculus [4]) [g] | inhibition in vivo at 20 mg/kg [5] [%] | inhibition in vivo at 10 mg/kg [6] [%] | Activity (Mus musculus [7]) [g] | Activity (Mus musculus [8]) [g]
1 | COc1ccc(Br)cc1C1C(C#N)=C(N)Oc2c(N)cc3nc4ccccc4nc3c21 (stereo not drawn) | 4.85 | 4.93 | < 4.30 | 4.52 |  |  |  |  |  |  |  | 
2 | N#CC1=C(N)Oc2c(N)cc3nc4ccccc4nc3c2C1c1ccc([N+](=O)[O-])cc1 (stereo not drawn) | 4.80 | 4.74 | < 4.30 | 4.84 |  |  |  |  |  |  |  | 
3 | CCOC(=O)C1=C(N)Oc2c(N)cc3nc4ccccc4nc3c2C1c1cccc(Br)c1 (stereo not drawn) | 4.87 | < 4.30 | < 4.30 | 4.97 |  |  |  |  |  |  |  | 
4 | CC[C@@]1(O)C(=O)OCc2c1cc1n(c2=O)Cc2cc3cc(O)ccc3nc2-1 [HYDROXYCAMPTOTHECIN] | 6.10 | 5.00 | 5.62 | 5.46 | Active |  |  |  |  |  |  | 
5 | CCOC(=O)C1=C(N)Oc2c(N)cc3nc4ccccc4nc3c2C1c1c(Cl)cccc1Cl (stereo not drawn) | < 4.30 | 4.40 | < 4.30 | 4.91 |  |  |  |  |  |  |  | 
6 | CCOC(=O)C1=C(N)Oc2c(N)cc3nc4ccccc4nc3c2C1c1cc(Br)c(OC)c(OC)c1 (stereo not drawn) | 4.99 | 4.99 | < 4.30 | 5.01 |  |  |  |  |  |  |  | 
7 | CC(C)c1ccc(C2C(C#N)=C(N)Oc3c(N)cc4nc5ccccc5nc4c32)cc1 (stereo not drawn) | 4.84 | 4.79 | < 4.30 | 4.69 |  |  |  |  |  |  |  | 
8 | COc1cc(C2C(C#N)=C(N)Oc3c(N)cc4nc5ccccc5nc4c32)cc(Br)c1OC (stereo not drawn) | 5.28 | 5.21 | 4.59 | 4.92 |  |  |  |  |  |  |  | 
9 | N#CC1=C(N)Oc2c(N)cc3nc4ccccc4nc3c2C1c1cccc([N+](=O)[O-])c1 (stereo not drawn) | 4.58 | < 4.30 | 4.69 | < 4.30 |  |  |  |  |  |  |  | 
10 | CCOC(=O)C1=C(N)Oc2c(N)cc3nc4ccccc4nc3c2C1c1cccc(Cl)c1Cl (stereo not drawn) | 5.14 | 5.35 | < 4.30 | 5.11 | Active | 27 | Active | 39.22 | 26.1 | 4.5 | 37.78 | 40.33
11 | COc1cc([C@@H]2c3cc4c(cc3[C@@H](O[C@@H]3O[C@@H]5CO[C@@H](C)O[C@H]5[C@H](O)[C@H]3O)[C@H]3COC(=O)[C@H]23)OCO4)cc(OC)c1O |  |  |  |  |  |  | Active |  |  |  |  | 
12 | COc1ccc(C2C(C#N)=C(N)Oc3c(N)cc4nc5ccccc5nc4c32)c(OC)c1OC (stereo not drawn) | 4.69 | 4.82 | 4.55 | 4.33 |  |  |  |  |  |  |  | 
13 | COc1ccc(C2C(C#N)=C(N)Oc3c(N)cc4nc5ccccc5nc4c32)cc1OC (stereo not drawn) | < 4.30 | < 4.30 | < 4.30 | < 4.30 |  |  |  |  |  |  |  | 
14 | CCOC(=O)C1=C(N)Oc2c(N)cc3nc4ccccc4nc3c2C1c1ccc(Cl)cc1Cl (stereo not drawn) | 4.72 | 4.94 | < 4.30 | 4.92 |  |  |  |  |  |  |  | 
15 | CCOC(=O)C1=C(N)Oc2c(N)cc3nc4ccccc4nc3c2C1c1cccc([N+](=O)[O-])c1 (stereo not drawn) | < 4.30 | 5.14 | 4.69 | < 4.30 |  |  |  |  |  |  |  | 
16 | O=P1(N(CCCl)CCCl)NCCCO1 (stereo not drawn) [CYCLOPHOSPHAMIDE ANHYDROUS] |  |  |  |  |  |  |  |  | 66.7 to 67.8 |  |  | 34.3 to 35.6
17 | CCOC(=O)C1=C(N)Oc2c(N)cc3nc4ccccc4nc3c2C1c1ccc(Br)cc1 (stereo not drawn) | 4.76 | 4.97 | < 4.30 | 4.69 |  |  |  |  |  |  |  | 
18 | CCOC(=O)C1=C(N)Oc2c(N)cc3nc4ccccc4nc3c2C1c1ccccc1Br (stereo not drawn) | 5.20 | 5.30 | 4.55 | 4.52 | Active | 38.9 | Active | 37.44 | 45.6 | 28.9 | 35.78 | 35.56
19 | CCOC(=O)C1=C(N)Oc2c(N)cc3nc4ccccc4nc3c2C1c1ccc([N+](=O)[O-])cc1 (stereo not drawn) | 4.73 | 5.17 | 4.88 | 4.79 |  |  |  |  |  |  |  | 

Row | Structure (SMILES) | pIC50 (A549) | pIC50 (HepG2) | pIC50 (MCF7) | pIC50 (HCT-116) | inhibition [1] | inhibition in vivo at 5 mg/kg [2] [%] | inhibition [3] | Activity (Mus musculus [4]) [g] | inhibition in vivo at 20 mg/kg [5] [%] | inhibition in vivo at 10 mg/kg [6] [%] | Activity (Mus musculus [7]) [g] | Activity (Mus musculus [8]) [g]
20 | COc1cc(C2C(C#N)=C(N)Oc3c(N)cc4nc5ccccc5nc4c32)cc(OC)c1Br (stereo not drawn) | 4.62 | 4.91 | < 4.30 | 4.74 |  |  |  |  |  |  |  | 
21 | CCOC(=O)C1=C(N)Oc2c(N)cc3nc4ccccc4nc3c2C1c1ccc(Cl)cc1 (stereo not drawn) | 5.26 | 5.14 | 5.00 | 5.09 |  |  |  |  |  |  |  | 
22 | COc1ccc(C2C(C#N)=C(N)Oc3c(N)cc4nc5ccccc5nc4c32)cc1F (stereo not drawn) | 4.95 | 5.11 | < 4.30 | 4.69 |  |  |  |  |  |  |  | 
23 | N#CC1=C(N)Oc2c(N)cc3nc4ccccc4nc3c2C1c1ccccc1Cl (stereo not drawn) | 5.20 | 5.08 | 4.60 | 5.13 |  |  |  |  |  |  |  | 
24 | COc1cc(C2C(C#N)=C(N)Oc3c(N)cc4nc5ccccc5nc4c32)cc(OC)c1O (stereo not drawn) | < 4.30 | < 4.30 | 4.54 | 5.12 |  |  |  |  |  |  |  | 
25 | CCOC(=O)C1=C(N)Oc2c(N)cc3nc4ccccc4nc3c2C1c1ccc(CC)cc1 (stereo not drawn) | 4.41 | 4.52 | < 4.30 | 4.82 |  |  |  |  |  |  |  | 
26 | N#CC1=C(N)Oc2c(N)cc3nc4ccccc4nc3c2C1c1ccc(Cl)cc1 (stereo not drawn) | 5.02 | 5.66 | 4.73 | 4.99 | Active | 0.09 | Active | 41.33 | 57.7 | 11.7 | 40 | 37.22
27 | N#CC1=C(N)Oc2c(N)cc3nc4ccccc4nc3c2C1c1ccc(Br)cc1 (stereo not drawn) | 4.95 | 4.99 | < 4.30 | 5.20 |  |  |  |  |  |  |  | 
28 | COc1cc(OC)c(C2C(C#N)=C(N)Oc3c(N)cc4nc5ccccc5nc4c32)cc1OC (stereo not drawn) | 4.35 | 4.64 | < 4.30 | 4.51 |  |  |  |  |  |  |  | 
29 | CCc1ccc(C2C(C#N)=C(N)Oc3c(N)cc4nc5ccccc5nc4c32)cc1 (stereo not drawn) | 4.63 | 4.81 | 4.72 | 5.26 |  |  |  |  |  |  |  | 
30 | N#CC1=C(N)Oc2c(N)cc3nc4ccccc4nc3c2C1c1c(Cl)cccc1Cl (stereo not drawn) | 4.92 | < 4.30 | 4.40 | 4.99 |  |  |  |  |  |  |  | 
31 | CCOC(=O)C1=C(N)Oc2c(N)cc3nc4ccccc4nc3c2C1c1ccc(Cl)c(Cl)c1 (stereo not drawn) | 4.77 | 4.62 | 5.08 | < 4.30 |  |  |  |  |  |  |  | 
32 | CCOC(=O)C1=C(N)Oc2c(N)cc3nc4ccccc4nc3c2C1c1ccc(OC)c(F)c1 (stereo not drawn) | 4.61 | 5.07 | < 4.30 | 4.69 |  |  |  |  |  |  |  | 
33 | CCOC(=O)C1=C(N)Oc2c(N)cc3nc4ccccc4nc3c2C1c1ccccc1F (stereo not drawn) | 4.61 | 5.20 | 4.73 | 4.45 |  |  |  |  |  |  |  | 
34 | N#CC1=C(N)Oc2c(N)cc3nc4ccccc4nc3c2C1c1cccc(Cl)c1 (stereo not drawn) | 4.67 | 5.03 | 4.41 | 4.82 |  |  |  |  |  |  |  | 
35 | CCOC(=O)C1=C(N)Oc2c(N)cc3nc4ccccc4nc3c2C1c1cc(Br)ccc1OC (stereo not drawn) | < 4.30 | 4.86 | < 4.30 | < 4.30 |  |  |  |  |  |  |  | 
36 | CCOC(=O)C1=C(N)Oc2c(N)cc3nc4ccccc4nc3c2C1c1ccccc1[N+](=O)[O-] (stereo not drawn) | 4.84 | 5.13 | 4.73 | 4.74 |  |  |  |  |  |  |  | 
37 | CCOC(=O)C1=C(N)Oc2c(N)cc3nc4ccccc4nc3c2C1c1cc(OC)c(Br)c(OC)c1 (stereo not drawn) | 4.87 | 5.00 | < 4.30 | 4.70 |  |  |  |  |  |  |  | 
